{
  "source": "ChEMBL document CHEMBL1201862",
  "about": "“PubChem BioAssay data set” (2004)",
  "key": {"Candida albicans [1]": {"system": "Candida albicans", "experiment": "Candida growth effect without fluconazole – C. albicans CaCi-2, dry powder, counter-screen for antifungal drug resistance project, dose response (AID 488802)", "type": "functional, organism-based"}, "Candida albicans [2]": {"system": "Candida albicans", "experiment": "C. albicans growth inhibition with fluconazole – CaCi-2 strain, Alamar Blue, dry powder, set 4, dose response (AID 488943)", "type": "functional, organism-based"}, "Candida albicans [3]": {"system": "Candida albicans", "experiment": "fluconazole-resistant Candida strain growth inhibitors – CaCi-8 strain, dry powder, set 4, dose response (AID 488950)", "type": "functional, organism-based"}, "NIH3T3": {"system": "NIH3T3", "experiment": "mammalian cell viability counter-check – Alamar Blue, fluconazole, dry powder, cytotoxicity control for antifungal drug resistance project, dose response (AID 488809)", "type": "functional, cell-based", "conditions": "Mus musculus"}, "Candida albicans [4]": {"system": "Candida albicans", "experiment": "antifungal activity against resistant Candida strain – CaCi-8, fluconazole, Alamar Blue, dry powder, dose response (AID 488807)", "type": "functional, organism-based"}, "[5]": {"biological_target": "T1, Apoptotic protease-activating factor 1 (Homo sapiens, UniProt O14727)", "T1 sequence (O14727 whole entry)": "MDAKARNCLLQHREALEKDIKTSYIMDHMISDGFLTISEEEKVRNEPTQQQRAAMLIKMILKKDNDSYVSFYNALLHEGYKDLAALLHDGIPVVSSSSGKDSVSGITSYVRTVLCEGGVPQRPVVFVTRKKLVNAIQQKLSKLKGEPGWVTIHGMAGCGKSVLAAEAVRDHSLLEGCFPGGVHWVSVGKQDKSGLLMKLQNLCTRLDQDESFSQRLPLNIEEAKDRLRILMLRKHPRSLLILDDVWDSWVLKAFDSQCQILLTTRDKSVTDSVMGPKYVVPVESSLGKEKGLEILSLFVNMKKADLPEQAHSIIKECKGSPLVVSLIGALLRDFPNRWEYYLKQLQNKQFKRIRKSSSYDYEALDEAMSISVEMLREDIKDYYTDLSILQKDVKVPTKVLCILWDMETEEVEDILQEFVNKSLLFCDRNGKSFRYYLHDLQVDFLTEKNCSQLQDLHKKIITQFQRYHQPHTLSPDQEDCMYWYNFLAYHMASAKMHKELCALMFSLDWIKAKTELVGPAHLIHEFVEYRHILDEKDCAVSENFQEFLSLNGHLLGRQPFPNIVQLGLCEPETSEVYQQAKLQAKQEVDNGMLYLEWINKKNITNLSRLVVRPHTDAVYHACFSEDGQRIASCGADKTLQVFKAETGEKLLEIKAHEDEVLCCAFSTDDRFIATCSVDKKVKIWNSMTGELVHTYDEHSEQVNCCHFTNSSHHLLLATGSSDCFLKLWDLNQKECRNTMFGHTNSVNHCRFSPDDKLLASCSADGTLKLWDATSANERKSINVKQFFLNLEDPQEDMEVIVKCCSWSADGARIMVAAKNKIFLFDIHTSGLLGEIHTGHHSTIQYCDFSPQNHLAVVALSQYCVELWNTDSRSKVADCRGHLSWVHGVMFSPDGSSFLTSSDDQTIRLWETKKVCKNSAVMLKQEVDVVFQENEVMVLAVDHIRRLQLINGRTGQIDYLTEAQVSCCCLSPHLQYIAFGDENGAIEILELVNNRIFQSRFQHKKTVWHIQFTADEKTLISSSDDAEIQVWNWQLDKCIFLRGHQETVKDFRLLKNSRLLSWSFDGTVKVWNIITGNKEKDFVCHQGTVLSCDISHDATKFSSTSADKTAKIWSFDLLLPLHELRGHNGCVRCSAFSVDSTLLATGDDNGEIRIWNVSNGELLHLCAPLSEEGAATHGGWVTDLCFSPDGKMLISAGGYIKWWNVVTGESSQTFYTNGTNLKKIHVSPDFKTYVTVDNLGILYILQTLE", "experiment": "SAR analysis of small molecule inhibitors of Apaf-1 in a Fluorescent assay.", "type": "functional", "conditions": "read-out: IC50_Mean"}, "[6]": {"experiment": "Vero cell cytotoxicity, cytotoxicity control for M. tuberculosis inhibitor project, purified and synthesized samples, set 3 (AID 504684)", "type": "functional", "conditions": "[…]"}, "[7]": {"experiment": "THP-1 cell cytotoxicity, cytotoxicity control, set 4 (AID 504911)", "type": "functional", "conditions": "Mycobacterium tuberculosis"}, "[8]": {"experiment": "THP-1 cell cytotoxicity, dose response, cytotoxicity control, set 3 (AID 504852)", "type": "functional", "conditions": "Mycobacterium tuberculosis"}, "[9]": {"biological_target": "DNA dC->dU-editing enzyme APOBEC-3A (Homo sapiens, UniProt P31941)", "sequence (P31941 whole entry)": "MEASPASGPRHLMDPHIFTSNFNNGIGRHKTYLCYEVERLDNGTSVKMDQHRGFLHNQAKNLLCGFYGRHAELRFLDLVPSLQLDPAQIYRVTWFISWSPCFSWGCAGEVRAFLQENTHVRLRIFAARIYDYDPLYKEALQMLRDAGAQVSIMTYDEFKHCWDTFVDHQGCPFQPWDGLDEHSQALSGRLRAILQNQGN", "experiment": "SAR analysis of small molecule inhibitors of APOBEC3A DNA Deaminase via a fluorescence-based single-stranded DNA deaminase assay.", "type": "functional", "conditions": "read-out: IC50_Mean"}, "[10]": {"biological_target": "DNA dC->dU-editing enzyme APOBEC-3G (Homo sapiens, UniProt Q9HC16)", "sequence (Q9HC16 whole entry)": "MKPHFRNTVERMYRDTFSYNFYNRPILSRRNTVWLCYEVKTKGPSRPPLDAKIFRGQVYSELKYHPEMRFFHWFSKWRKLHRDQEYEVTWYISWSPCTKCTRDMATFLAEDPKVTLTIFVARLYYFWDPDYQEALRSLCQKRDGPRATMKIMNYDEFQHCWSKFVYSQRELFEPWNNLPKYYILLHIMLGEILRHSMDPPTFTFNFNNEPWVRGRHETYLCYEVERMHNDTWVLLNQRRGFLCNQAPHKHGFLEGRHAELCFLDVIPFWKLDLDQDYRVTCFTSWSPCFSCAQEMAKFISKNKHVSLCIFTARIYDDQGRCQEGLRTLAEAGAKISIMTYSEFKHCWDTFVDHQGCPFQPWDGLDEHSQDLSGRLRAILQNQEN", "experiment": "inhibition of APOBEC3G ssDNA deamination – biochemical, fluorescence, single-stranded DNA substrate, SAR follow-up (AID 602136)", "type": "functional", "conditions": "read-out: IC50_Mean"}},
  "note": "Active and inactive are the calls of the source.",
  "data": [
    {"compound": "O=C(c1ccc(Cl)c(Cl)c1)N1CCN(c2ccnc3cc(Cl)ccc23)CC1", "values": [
      {"measurement": "AC50", "setting": "Candida albicans [1]", "result": "45.2 µM (active)"},
      {"measurement": "AC50", "setting": "Candida albicans [2]", "result": "0.726 µM (active)"},
      {"measurement": "AC50", "setting": "Candida albicans [3]", "result": "0.515 µM (active)"},
      {"measurement": "AC50", "setting": "NIH3T3", "result": "43.6 µM (active)"},
      {"measurement": "AC50", "setting": "Candida albicans [4]", "result": "1.14 µM (active)"}
    ]},
    {"compound": "O=C(Nc1ccc2c(c1)C(=O)NC2=O)c1nc2ccccc2s1", "values": [
      {"measurement": "IC50", "setting": "[5]", "result": "> 100 µM (inactive)"}
    ]},
    {"compound": "Cc1[nH]c(SCC(=O)N(C)c2ccccc2)nc(=O)c1C", "values": [
      {"measurement": "CC50", "setting": "[6]", "result": "> 100 µM (active)"},
      {"measurement": "CC50", "setting": "[7]", "result": "> 100 µM (active)"},
      {"measurement": "CC50", "setting": "[8]", "result": "> 100 µM (active)"}
    ]},
    {"compound": "O=C(CSc1nnc2scc(-c3ccc(Cl)cc3)n12)N1CCOCC1", "values": [
      {"measurement": "IC50", "setting": "[9]", "result": "> 99 µM (inactive)"},
      {"measurement": "IC50", "setting": "[10]", "result": "28 µM (inactive)"}
    ]}
  ]
}
